From PubChem BioAssay (NCI) come the findings set out here.

Values joined by “and” are separate entries in the source; they are usually repeats but may differ in a detail not shown here. Equal entries are not always repeated.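 Growth conditions: 96-well plates. Treatment: test compound, 48 hours, 5 concentrations. Analysis: linear interpolation between bracketing concentrations; unreached endpoints set to highest concentration. Abbreviation: GI50, concentration required for 50% inhibition of growth. TGI denotes the concentration required for complete inhibition of growth.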 Some results are limits rather than exact numbers.

The assay concerns MDA-MB-468 breast. Kind of assay: NCI anticancer screen, dose series, 48 h.
`O=c1c2ccccc2c(=O)c2c1sc1c(=O)c3ccc(O)cc3c(=O)c12`: the GI50 was 1520 nM and the TGI was 4000 nM.
Turning to `CCCCCCCCCCCCNC(=O)[C@H]1CSC(c2ccsc2)N1` (stereo partly drawn), the GI50 is 846 nM and the TGI worked out at 1630 nM.
For `NC(=O)c1cc(-c2ccc3ncnc(N4CCc5cc(F)c(Cl)cc54)c3c2)cnc1N` the same measures were 397 nM and 2040 nM.
`CCCCCCCCCCCCCCCCCCNC(=O)[C@H]1CSC(c2ccc(F)c(OC)c2)N1` (stereo partly drawn): the GI50 is 1840 nM and the TGI is > 50000 nM.
In the case of `O=C1c2cc3c(cc2-c2c1c1cc(F)c(F)cc1c(=O)n2C[C@H](O)CO)OCO3`, the GI50 is 37.9 nM and the TGI came out at 206 nM.
For `CN(C)CCCNc1c2ccccc2nc2c1oc1ccc(Cl)cc12` the same measures were 2760 nM and 11000 nM.
The matching figures for `CCOC(=O)C(=Cc1c(-c2ccccc2)[nH]c2ccccc12)C(=O)OCC`: 3100 nM and 15400 nM.
Regarding `Cc1cc(Nc2cc(N3CCN(C)CC3)nc(C#Cc3ccccc3)n2)n[nH]1`, the GI50 was 1670 nM and the TGI is 6530 nM.
For `NCCNc1nc2ccccc2c2c(=O)c3cc(F)cc(Cl)c3sc12` the same measures were 1730 nM and 3440 nM.
`N#CC1=C(N)Oc2c(sc3c(Br)cccc23)C1c1ccc(F)cc1` (stereo not drawn): the GI50 was 333 nM and the TGI was 6410 nM.
As to `NC(=O)c1c(NC(=O)c2cccc(C(F)(F)F)c2)sc2c1CCC(=O)C2`, the GI50 was 348 nM and the TGI was 2900 nM.
With `Cc1ccc(S(=O)c2ccc([N+](=O)[O-])c3nonc23)cc1` (stereo not drawn), the GI50 was 1750 nM and the TGI came out at 3650 nM.
Turning to `Cc1cc2c(-c3nc4ccccn4c3NC34CC5CC(CC(C5)C3)C4)c(O)c(O)cc2c(O)c1-c1c(C)cc2c(-c3nc4ccccn4c3NC34CC5CC(CC(C5)C3)C4)c(O)c(O)cc2c1O`, the GI50 is 143 nM and the TGI was 1570 nM.
Turning to `CCn1c(-c2nonc2N)nc2c(C#CC(C)(C)O)ncc(OC[C@@H]3CCCN3)c21`, the GI50 was 232 nM and the TGI is 7190 nM.
As for `Cc1ccc2c(C(C[N+](=O)[O-])c3ccco3)c(-c3ccccc3)[nH]c2c1` (stereo not drawn), the GI50 is 7260 nM and the TGI turned out to be 71200 nM.
For `COc1ccc(-c2nn(-c3cccc(Cl)c3)cc2/C=C2\C(=N)N(c3ccccc3)N=C2N)cc1` the same measures were 4150 nM and 45800 nM.
Take `Fc1ccc(-c2cc(-c3cn[nH]c3-c3ccccn3)ccn2)cc1`: the GI50 was > 25000 nM and the TGI was > 25000 nM.
`COc1ccc(-c2nn3ncccc3c2-c2ccnc(Nc3cccc(C(F)(F)F)c3)n2)cc1`: the GI50 was 4620 nM and the TGI worked out at 14100 nM.
In the case of `Cc1cc(C(=O)Nc2cc(Nc3ncccc3-c3ncnc4nc[nH]c34)ccc2F)cc(C(C)(C)C#N)c1`, the GI50 is 10300 nM and the TGI was > 100000 nM.
Turning to `Oc1ccc(CSc2nnc(-c3ccc(Oc4ccccc4)cc3)n2-c2ccccc2)c2cccnc12`, the GI50 was 180 nM and the TGI amounted to 6810 nM.
For `CCc1ccc(OCc2ccccc2C(=O)Nc2ccc3nc(C)cc(N)c3c2)cc1`, the GI50 is 1260 nM and the TGI stood at 2800 nM.
As to `N#Cc1c(-c2ccc(Cl)cc2)csc1NC(=O)Nc1cccc(C(F)(F)F)c1`, the GI50 is 2180 nM and the TGI is 8270 nM.
`Cc1ccc(NCCNCC(O)CO)c2c(=O)c3ccccc3sc12` (stereo not drawn): the GI50 is 1390 nM and the TGI amounted to 2860 nM.
Regarding `COc1ccc(-c2nn(-c3cccc(Cl)c3)cc2-c2cc(-c3cccs3)no2)cc1`, the GI50 is 2680 nM and the TGI amounted to 12300 nM.
As for `CC(=O)c1c(Nc2ccc(F)c(F)c2F)[nH]c2c(F)cc(F)cc2c1=O`, the GI50 was 261 nM and the TGI was determined as 789 nM.
Regarding `Cc1nc2cc(Nc3nc(Nc4ccc(F)cc4)nc(-c4ccc(Cl)cc4)n3)ccc2n1Cc1ccccc1`, the GI50 is 4940 nM and the TGI stood at 88000 nM.
For the compound `Cc1cc([C@H](C)Nc2nccc(N3C(=O)OC[C@@H]3[C@H](C)F)n2)ncc1-c1ccnc(C(F)(F)F)c1`, the GI50 is 9500 nM and the TGI was found to be 79600 nM.
In the case of `COc1ccc2nc3cc(Cl)ccc3c(Nc3ccc(O)c(CN4CCCC4)c3)c2c1`, the GI50 was 1850 nM and the TGI was 3650 nM.
For the compound `COc1cc(/C=C2\C(=O)Nc3ccc(Br)cc32)cc(OC)c1OC`, the GI50 is 3290 nM and the TGI is > 100000 nM.
For the compound `O=C(Nc1cccc(Cl)c1)c1cc(Cl)ccc1O`, the GI50 is 1750 nM and the TGI was found to be 7230 nM.
For `NC1(C(=O)O)CSSC1`, the GI50 was 2100 nM and the TGI was found to be 7890 nM.
For `COc1ccc(-c2conc2-c2ccccc2)cc1` the same measures were 225 nM and > 100000 nM.
The matching figures for `COC12C=C/C(=C(/C(=O)OCc3csc(SC)n3)C(=O)CCCCCCCCC3(OC)C=C/C(=C(/C(=O)OCc4cnc(SC)s4)C(=O)CCCCCCCC1)O3)O2` (stereo not drawn): 3560 nM and 61300 nM.
For the compound `O=C(Nc1nc2ccc(F)cc2s1)c1cccnc1Nc1ccc(Cl)cc1Cl`, the GI50 was 786 nM and the TGI came out at 20200 nM.
Turning to `CC(=O)OC1Oc2cc(C)c(C)cc2-c2oc(=O)c(-c3ccccc3)cc21` (stereo not drawn), the GI50 was 796 nM and the TGI was 43900 nM.
On to `CC[C@H](C)[C@H](NC(=O)N[C@@H](C)c1ccccc1)C(=O)N(C)[C@H](C[C@@H](OC(C)=O)c1nc(C(=O)N[C@@H](Cc2ccccc2)C[C@H](C)C(=O)OC)cs1)C(C)C`, for which the GI50 is 3600 nM and the TGI was found to be 24900 nM.
For `CC(=O)Nc1ccc2c(c1)CN1C(=O)c3ccccc3C1=N2` the same measures were > 100000 nM and > 100000 nM.
`COc1cccc(C2CC(=O)Nc3cc4c(cc32)CCC4)c1OC` (stereo not drawn): the GI50 is 1830 nM and the TGI was determined as 5450 nM.
For `O=C1c2c(O)ccc(O)c2C(=O)c2c(NCCNCCO)ccc(NCCNCCO)c21` the same measures were 83.5 nM and 346 nM.
For the compound `Oc1cccc(-c2nc(N3CCOCC3)c3oc4ncccc4c3n2)c1`, the GI50 was 576 nM and 375 nM; the TGI is 2370 nM and 2150 nM.
Take `C#CCn1cc(C=C2C(=O)NC(=S)NC2=O)c2cc(Cl)ccc21`: the GI50 was 2060 nM and the TGI amounted to 5080 nM.
The matching figures for `COc1ccc(CNC(=O)c2ccc(-c3cc(-c4nnc(C)o4)ccc3C)cc2)cc1`: 5140 nM and 21400 nM.
Consider `COc1ccccc1-c1nccc(COc2ccccc2C[C@@H](Oc2ncnc3sc(-c4ccc(F)cc4)c(-c4ccc(OCCN5CCN(C)CC5)c(Cl)c4C)c23)C(=O)O)n1`, for which the GI50 is < 10 nM and the TGI is 12.1 nM.
With `CN1CCN(CCCOc2ccc3ncnc(Nc4ccc(Oc5cccc(F)c5)c(Cl)c4)c3c2)CC1`, the GI50 was 1060 nM and the TGI turned out to be 2530 nM.
